Test results published in article PMC12666248, “Synthesis of an N‐Galactosyl Norbornane Aziridine and its Potent Mixed Inhibition of Aspergillus oryzae β‐Galactosidase” (Chembiochem, 2025).

Target: T1, β-galactosidase (A. oryzae) (Aspergillus oryzae, UniProt Q2UCU3)
T1 construct: gene lacA
T1 sequence (Q2UCU3 19-1005): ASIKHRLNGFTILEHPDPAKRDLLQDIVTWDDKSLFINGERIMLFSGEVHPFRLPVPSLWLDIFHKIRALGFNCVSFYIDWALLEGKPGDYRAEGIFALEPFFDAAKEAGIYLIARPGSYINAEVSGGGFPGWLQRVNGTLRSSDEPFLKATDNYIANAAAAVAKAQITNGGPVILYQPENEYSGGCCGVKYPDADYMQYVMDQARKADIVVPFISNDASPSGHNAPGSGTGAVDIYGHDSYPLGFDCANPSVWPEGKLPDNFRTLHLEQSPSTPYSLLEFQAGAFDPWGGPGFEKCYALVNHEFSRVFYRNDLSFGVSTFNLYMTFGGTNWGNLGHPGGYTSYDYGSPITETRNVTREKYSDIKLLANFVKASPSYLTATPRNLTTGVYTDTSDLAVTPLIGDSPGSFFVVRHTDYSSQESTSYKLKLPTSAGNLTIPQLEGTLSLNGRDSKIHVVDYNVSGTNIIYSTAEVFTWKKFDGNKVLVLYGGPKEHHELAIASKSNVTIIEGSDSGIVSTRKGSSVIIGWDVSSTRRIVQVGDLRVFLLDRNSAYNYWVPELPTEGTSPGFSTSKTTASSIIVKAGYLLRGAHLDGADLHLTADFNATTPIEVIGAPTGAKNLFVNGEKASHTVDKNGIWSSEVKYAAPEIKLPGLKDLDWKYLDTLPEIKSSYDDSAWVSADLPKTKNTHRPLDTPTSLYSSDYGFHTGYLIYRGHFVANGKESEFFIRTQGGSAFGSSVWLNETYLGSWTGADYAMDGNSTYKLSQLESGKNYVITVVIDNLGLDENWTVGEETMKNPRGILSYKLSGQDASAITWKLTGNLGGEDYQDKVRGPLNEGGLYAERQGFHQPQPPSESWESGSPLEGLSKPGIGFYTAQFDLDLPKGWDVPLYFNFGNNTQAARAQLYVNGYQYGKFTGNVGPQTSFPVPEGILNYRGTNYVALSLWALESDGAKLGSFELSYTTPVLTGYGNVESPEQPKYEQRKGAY
Assay: Enzyme kinetics with 2-nitrophenyl β-D-galactopyranoside, absorbance at […] nm, Lineweaver–Burk analysis, pH […] °C
Type: biochemical

With `OC[C@H]1O[C@@H](N2[C@@H]3[C@H]4CC[C@H](C4)[C@@H]32)[C@H](O)[C@@H](O)[C@H]1O` (stereo partly drawn) [compound 6, N‐(β‐D‐galactopyranosyl)‐exo‐3‐azatricyclo[3.2.1.0^2,4]octane] the Ki was 3.65 µM.
